# In PubChem BioAssay (NCI):
#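 Step 1: Grow cells in 96-well plates. Step 2: Expose to compound for 48 hours at 5 concentrations. Step 3: Interpolate endpoints linearly; if unreached, use highest concentration. Abbreviation: GI50, concentration required for 50% inhibition of growth. At the TGI there is no net growth.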
# Legend:
# Assay in all cases: growth of human tumour cells (NCI), 48 h
# SK-MEL-2 melanoma = system: SK-MEL-2 melanoma
# SR leukemia = system: SR leukemia
# HCT-15 colon = system: HCT-15 colon
# A549 NSCLC = system: A549 NSCLC
# SF-539 CNS = system: SF-539 CNS
# NCI-H460 lung = system: NCI-H460 lung
# COLO 205 colon = system: COLO 205 colon
# SNB-19 CNS = system: SNB-19 CNS
# RXF 393 renal = system: RXF 393 renal
# LOX IMVI melanoma = system: LOX IMVI melanoma
# UO-31 renal = system: UO-31 renal
# IGROV1 ovarian = system: IGROV1 ovarian
# SK-MEL-5 melanoma = system: SK-MEL-5 melanoma
# NCI-H23 lung = system: NCI-H23 lung
# 786-0 renal = system: 786-0 renal
# HS 578T breast = system: HS 578T breast
# OVCAR-4 ovarian = system: OVCAR-4 ovarian
# EKVX NSCLC = system: EKVX NSCLC
# PC-3 prostate = system: PC-3 prostate
# MCF7 breast = system: MCF7 breast
# HCT-116 colon = system: HCT-116 colon
# SF-295 CNS = system: SF-295 CNS
# DU-145 prostate = system: DU-145 prostate
# HL-60(TB) leukemia = system: HL-60(TB) leukemia
# SK-MEL-28 melanoma = system: SK-MEL-28 melanoma
# ACHN renal = system: ACHN renal
# SW-620 colon = system: SW-620 colon
# U251 CNS = system: U251 CNS
# K-562 leukemia = system: K-562 leukemia
# OVCAR-5 ovarian = system: OVCAR-5 ovarian
# HCC-2998 colon = system: HCC-2998 colon
# OVCAR-8 ovarian = system: OVCAR-8 ovarian
# UACC-62 melanoma = system: UACC-62 melanoma
# MOLT-4 leukemia = system: MOLT-4 leukemia
# HOP-92 NSCLC = system: HOP-92 NSCLC
# A498 renal = system: A498 renal
# MALME-3M melanoma = system: MALME-3M melanoma
# T-47D breast = system: T-47D breast
# BT-549 breast = system: BT-549 breast
# NCI-H226 lung = system: NCI-H226 lung
# SF-268 CNS = system: SF-268 CNS
# RPMI-8226 leukemia = system: RPMI-8226 leukemia
# CCRF-CEM leukemia = system: CCRF-CEM leukemia
# OVCAR-3 ovarian = system: OVCAR-3 ovarian
# MDA-MB-231 breast = system: MDA-MB-231 breast
# M14 melanoma = system: M14 melanoma
# SN12C renal = system: SN12C renal
# KM12 colon = system: KM12 colon
# HT29 colon = system: HT29 colon
# HOP-62 NSCLC = system: HOP-62 NSCLC
# CAKI-1 renal = system: CAKI-1 renal
# SNB-75 CNS = system: SNB-75 CNS
# NCI/ADR-RES ovarian = system: NCI/ADR-RES ovarian
# TK-10 renal = system: TK-10 renal
# NCI-H522 lung = system: NCI-H522 lung
# SK-OV-3 ovarian = system: SK-OV-3 ovarian
# UACC-257 melanoma = system: UACC-257 melanoma
structure (smiles),measurement,setting,value
CC(=O)c1ccc2c(c1)C1C=CCC1[C@H](c1cc3c(cc1Br)OCO3)N2 (stereo partly drawn),GI50,SK-MEL-2 melanoma,1.22 µM
same,TGI,SK-MEL-2 melanoma,12.4 µM
same,GI50,SR leukemia,0.519 µM
same,TGI,SR leukemia,6.15 µM
same,GI50,HCT-15 colon,1.24 µM
same,TGI,HCT-15 colon,20.6 µM
same,GI50,A549 NSCLC,2.03 µM
same,TGI,A549 NSCLC,> 34.4 µM
same,GI50,SF-539 CNS,0.893 µM
same,TGI,SF-539 CNS,2.37 µM
same,GI50,NCI-H460 lung,0.954 µM
same,TGI,NCI-H460 lung,4.81 µM
same,GI50,COLO 205 colon,1.94 µM
same,TGI,COLO 205 colon,5.71 µM
same,GI50,SNB-19 CNS,1.87 µM
same,TGI,SNB-19 CNS,33.2 µM
same,GI50,RXF 393 renal,1.85 µM
same,TGI,RXF 393 renal,3.35 µM
same,GI50,LOX IMVI melanoma,1.31 µM
same,TGI,LOX IMVI melanoma,2.62 µM
same,GI50,UO-31 renal,1.89 µM
same,TGI,UO-31 renal,34.9 µM
same,GI50,IGROV1 ovarian,1.63 µM
same,TGI,IGROV1 ovarian,> 64.9 µM
same,GI50,SK-MEL-5 melanoma,1.13 µM
same,TGI,SK-MEL-5 melanoma,5.81 µM
same,GI50,NCI-H23 lung,2.24 µM
same,TGI,NCI-H23 lung,33.4 µM
same,GI50,786-0 renal,1.53 µM
same,TGI,786-0 renal,15.3 µM
same,GI50,HS 578T breast,0.713 µM
same,TGI,HS 578T breast,2.19 µM
same,GI50,OVCAR-4 ovarian,1.63 µM
same,TGI,OVCAR-4 ovarian,> 50.2 µM
same,GI50,EKVX NSCLC,1.38 µM
same,TGI,EKVX NSCLC,> 52.5 µM
same,GI50,PC-3 prostate,0.636 µM
same,TGI,PC-3 prostate,7.04 µM
same,GI50,MCF7 breast,0.368 µM
same,TGI,MCF7 breast,18.9 µM
same,GI50,HCT-116 colon,1.18 µM
same,TGI,HCT-116 colon,14.3 µM
same,GI50,SF-295 CNS,0.382 µM
same,TGI,SF-295 CNS,3.07 µM
same,GI50,DU-145 prostate,0.893 µM
same,TGI,DU-145 prostate,4.44 µM
same,GI50,HL-60(TB) leukemia,1.3 µM
same,TGI,HL-60(TB) leukemia,5.07 µM
same,GI50,SK-MEL-28 melanoma,0.626 µM
same,TGI,SK-MEL-28 melanoma,6.56 µM
same,GI50,ACHN renal,1.63 µM
same,TGI,ACHN renal,22.1 µM
same,GI50,SW-620 colon,0.448 µM
same,TGI,SW-620 colon,> 29.2 µM
same,GI50,U251 CNS,1.1 µM
same,TGI,U251 CNS,11.9 µM
same,GI50,K-562 leukemia,0.794 µM
same,GI50,OVCAR-5 ovarian,3.01 µM
same,TGI,OVCAR-5 ovarian,> 38.8 µM
same,GI50,HCC-2998 colon,3.84 µM
same,TGI,HCC-2998 colon,10.6 µM
same,GI50,OVCAR-8 ovarian,1.63 µM
same,TGI,OVCAR-8 ovarian,13 µM
same,GI50,UACC-62 melanoma,1.46 µM
same,TGI,UACC-62 melanoma,> 31.1 µM
same,GI50,MOLT-4 leukemia,1.03 µM
same,TGI,MOLT-4 leukemia,7.77 µM
same,GI50,HOP-92 NSCLC,< 0.0385 µM
same,TGI,HOP-92 NSCLC,0.479 µM
same,GI50,A498 renal,0.482 µM
same,TGI,A498 renal,2.14 µM
same,GI50,MALME-3M melanoma,0.86 µM
same,TGI,MALME-3M melanoma,45.8 µM
same,GI50,T-47D breast,1.74 µM
same,TGI,T-47D breast,> 47.4 µM
same,GI50,BT-549 breast,0.716 µM
same,TGI,BT-549 breast,13.8 µM
same,GI50,NCI-H226 lung,1.74 µM
same,TGI,NCI-H226 lung,> 32.6 µM
same,GI50,SF-268 CNS,0.67 µM
same,TGI,SF-268 CNS,19.1 µM
same,GI50,RPMI-8226 leukemia,0.58 µM
same,TGI,RPMI-8226 leukemia,13.2 µM
same,GI50,CCRF-CEM leukemia,0.644 µM
same,TGI,CCRF-CEM leukemia,2.77 µM
same,GI50,OVCAR-3 ovarian,0.48 µM
same,TGI,OVCAR-3 ovarian,1.08 µM
same,GI50,MDA-MB-231 breast,1.3 µM
same,TGI,MDA-MB-231 breast,11.4 µM
same,GI50,M14 melanoma,0.765 µM
same,TGI,M14 melanoma,5.38 µM
same,GI50,SN12C renal,1.64 µM
same,TGI,SN12C renal,> 33 µM
same,GI50,KM12 colon,0.581 µM
same,TGI,KM12 colon,11.3 µM
same,GI50,HT29 colon,0.653 µM
same,TGI,HT29 colon,13 µM
same,GI50,HOP-62 NSCLC,1.9 µM
same,TGI,HOP-62 NSCLC,28.9 µM
same,GI50,CAKI-1 renal,0.512 µM
same,TGI,CAKI-1 renal,20.5 µM
same,GI50,SNB-75 CNS,0.5 µM
same,TGI,SNB-75 CNS,7.55 µM
same,GI50,NCI/ADR-RES ovarian,1.33 µM
same,TGI,NCI/ADR-RES ovarian,4.71 µM
same,GI50,TK-10 renal,2.04 µM
same,TGI,TK-10 renal,37.1 µM
same,GI50,NCI-H522 lung,0.84 µM
same,TGI,NCI-H522 lung,4.87 µM
same,GI50,SK-OV-3 ovarian,1.47 µM
same,TGI,SK-OV-3 ovarian,17.8 µM
same,GI50,UACC-257 melanoma,5.34 µM
same,TGI,UACC-257 melanoma,27 µM
